This passage reports Activity and IC50 results from ChEMBL document CHEMBL1681776, “A photoreactive probe that differentiates the binding sites of noncompetitive GABA receptor antagonists” (Bioorg Med Chem Lett, 2011).

The species named for experiment [1] is Rattus norvegicus. Nature of the experiment: Displacement of [3H]EBOB from GABA receptor in Wistar rat brain P2 membrane in presence of fipronil measured after membrane washout. It is filed as cell membranes. A general note: In a radioligand displacement assay an active substance lowers the binding of a labelled ligand.
For experiment [2], the species on record is Rattus norvegicus. Kind of experiment: (§1) Displacement of [3H]EBOB from Wistar rat brain membrane GABA receptor by liquid scintillation counting.
Experiment [3] can be described thus: as §1.
For experiment [4], the species on record is Rattus norvegicus. Nature of the experiment: Displacement of [3H]EBOB from GABA receptor in 365 nm ultraviolet light irradiated Wistar rat brain P2 membrane by photoaffinity labeling experiment.
Another experiment has as its system Musca domestica. Kind of experiment: (§2) Displacement of [3H]EBOB from housefly head membrane GABA receptor by liquid scintillation counting.
The nature of experiment [5]: as §2. On the set-up: species or system Musca domestica.
For experiment [6], the species on record is Rattus norvegicus. Kind of experiment: Displacement of [3H]EBOB from GABA receptor in 365 nm ultraviolet light irradiated Wistar rat brain P2 membrane by photoaffinity labeling experiment in presence of picrotoxinin measured after membrane washout.

In general, IC50 refers to the midpoint of a concentration-inhibition curve. High values mean lower potency, low ones higher potency.

Active and inactive are the calls of the source. The calls are words filed in the database; no cut-off is given here.

On to `COC(=O)CCC#Cc1ccc(C(=O)Oc2ccc(C3(C(F)(F)F)N=N3)cc2[N+](=O)[O-])cc1`, for which the outcome in the experiment listed under Rattus norvegicus [1] and in the experiment filed under Rattus norvegicus [4] was Active. The Activity entry in the experiment listed under Rattus norvegicus [2] and with Musca domestica was “Dose-dependent effect” throughout. Further, the IC50 in experiment [3] was found to be 1490 nM; in experiment [5], 240 nM. In the experiment listed under Rattus norvegicus [6], the outcome was inactive.

Regarding `CC(C)(C)CCOC(=O)c1ccc(C#CCCC(=O)O)cc1`, the results for the concentration for half-maximal inhibition (IC50) in experiment [3] and in experiment [5] were 88 nM and 3410 nM, respectively.
